In one test the target is T1, EGFR (L858R T790M C797S) (Homo sapiens, UniProt P00533, C797S/L858R/T790M).
T1 construct: purchased SignalChem E10-122VG
In words: Biochemical EGFR inhibition assay (Caliper mobility shift), EGFR LRTMCS mutant. Particulars: inhibitory activity against EGFR LRTMCS mutant; apparent IC50; read-out: Ext Enz LRTMCS. The method, boiled down: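 Kinase reactions proceed at 25° C. to 10%–20% conversion of total peptide, are terminated with 35 mM EDTA, and the phosphopeptide is resolved from substrate by electrophoretic mobility shift. Apparent IC50 values come from plotting percent activity against log compound concentration.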

Test [1] relates to phosphorylation of EGFR (Tyr1068) in NCI-H1975 cell line that harbors the EGFR L858R T790M mutations. Kind of test: NCI-H1975 pEGFR AlphaLISA assay. Particulars: 4-5 hours incubation, read-out: Ext pEGFR H1975. The class given is cell-based. Summed up: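 Phospho-EGFR Tyr1068 AlphaLISA readout: lysates taken from compound-treated H1975 cells (L858R T790M EGFR) after a 4-5 h exposure at 37 °C. Cells had adhered overnight beforehand. IC50 derived by plotting % pEGFR inhibition against log compound concentration.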
A general note: Bead proximity is the source of the signal in Alpha formats.

Where [2] appears, read: inhibition of phosphorylation of mutant EGFR in NCI-H1975 cells.
Setting [3] is: Homo sapiens, NCI-H1975, inhibition of phosphorylation of mutant EGFR in NCI-H1975 cells.

Read-outs that look alike come from different tables or passages of the source.

As to `CC(C)c1ccc(N2CC(CS(C)(=O)=O)C2)c2cnc(Nc3ccnc(N4CC[C@H](O)[C@H](C)C4)n3)cc12` (single isomer, unassigned) [Compound 19, (3S,4R)-1-[4-({8-[3-(methanesulfonylmethyl)azetidin-1-yl]-5-(propan-2-yl)isoquinolin-3-yl}amino)pyrimidin-2-yl]-3-methylpiperidin-4-ol or (3R,4S)-1-[4-({8-1,3-(methanesulfonylmethyl)azetidin-1-yl]-5-(propan-2-yl)isoquinolin-3-yl}amino)pyrimidin-2-yl]-3-methylpiperidin-4-ol], the IC50 fell in the range of 15.1 to 20 nM at EGFR (L858R T790M C797S) and 10.1 to 20 nM in test [1] (setting [2]).
In the case of `CO[C@@H]1CCN(c2nccc(Nc3cc4c(C(C)C)ncc(N5CC(CS(C)(=O)=O)C5)c4cn3)n2)C[C@@H]1F` [Compound 74, N-{2-[(3S,4R)-3-fluoro-4-methoxypiperidin-1-yl]pyrimidin-4-yl}-8-[3-(methanesulfonylmethyl)azetidin-1-yl]-5-(propan-2-yl)-2,6-naphthyridin-3-amine], the IC50 on EGFR (L858R T790M C797S) was no more than 15 nM; in test [1] (setting [3]), no more than 10 nM.
Taken in the same sequence, the figures for `CCS(=O)(=O)CC1CN(c2ccc(C(C)C)c3cc(Nc4ccnc(N5CC[C@@H](O)[C@@](C)(F)C5)n4)ncc23)C1` (single isomer, unassigned) [Compound 110] were no more than 15 nM and no more than 10 nM.
For `CC(C)c1ccc(N2CC(CS(C)(=O)=O)C2)c2cnc(Nc3ccnc(N4CCC5(CCO5)CC4)n3)cc12` [Compound 38, 8-[3-(methanesulfonylmethyl)azetidin-1-yl]-N-(2-{1-oxa-7-azaspiro[3.5]nonan-7-yl}pyrimidin-4-yl)-5-(propan-2-yl)isoquinolin-3-amine], in that order: no more than 15 nM and no more than 10 nM.
For `CO[C@H]1CCN(c2nccc(Nc3cc4c(C(C)C)ncc(N5C[C@H](CS(C)(=O)=O)[C@H]5C)c4cn3)n2)C[C@H]1F` [Compound 140, N-{2-[(3R,4S)-3-fluoro-4-methoxypiperidin-1-yl]pyrimidin-4-yl}-8-[(2R,3S)-3-(methanesulfonylmethyl)-2-methylazetidin-1-yl]-5-(propan-2-yl)-2,6-naphthyridin-3-amine], in that order: no more than 15 nM and no more than 10 nM.
As for `CCS(=O)(=O)CC1CN(c2ccc(OC)c3cc(Nc4ccnc(N5CC[C@@H](O)[C@@](C)(F)C5)n4)ncc23)C1` (single isomer, unassigned) [Compound 77], the IC50 on EGFR (L858R T790M C797S) is 15.1 to 20 nM; in test [1] (setting [3]) it was 30.1 to 50 nM.
Regarding “(R)-methyl({1-[3-({2-[(3R,4S)-3-fluoro-4-methoxypiperidin-1-yl]pyrimidin-4-yl}amino)-5-(propan-2-yl)isoquinolin-8-yl]azetidin-3-yl}methyl)imino-λ^6-sulfanone or (S)-methyl({1-[3-({2-[(3R,4S)-3-fluoro-4-methoxypiperidin-1-yl]pyrimidin-4-yl}amino)-5-(propan-2-yl)isoquinolin-8-yl]azetidin-3-yl}methyl)imino-λ^6-sulfanone [Compound 274]”, the values for the IC50 (on EGFR (L858R T790M C797S); in test [1] (setting [2])) were 15.1 to 20 nM and 10.1 to 20 nM, respectively.
`CO[C@@H]1CCN(c2nccc(Nc3cc4c(C(C)C)ccc(N5CC([C@H](CN)S(C)(=O)=O)C5)c4cn3)n2)C[C@@H]1F` (single isomer, unassigned) [Compound 193, 8-{3-[(1R)-2-amino-1-methanesulfonylethyl]azetidin-1-yl}-N-{2-[(3S,4R)-3-fluoro-4-methoxypiperidin-1-yl]pyrimidin-4-yl}-5-(propan-2-yl)isoquinolin-3-amine or 8-{3-[(1S)-2-amino-1-methanesulfonylethyl]azetidin-1-yl}-N-{2-[(3S,4R)-3-fluoro-4-methoxypiperidin-1-yl]pyrimidin-4-yl}-5-(propan-2-yl)isoquinolin-3-amine]: the IC50 on EGFR (L858R T790M C797S) is no more than 15 nM; in test [1] (setting [3]), no more than 10 nM.
For `CC(C)c1ccc(N2CC(CS(C)(=O)=O)C2)c2cnc(Nc3ccnc(N4CCC5(OCCO5)[C@H](F)C4)n3)cc12` (single isomer, unassigned) [Compound 180, N-{2-[(6R)-6-fluoro-1,4-dioxa-8-azaspiro[4.5]decan-8-yl]pyrimidin-4-yl}-8-[3-(methanesulfonylmethyl)azetidin-1-yl]-5-(propan-2-yl)isoquinolin-3-amine or N-{2-[(6S)-6-fluoro-1,4-dioxa-8-azaspiro[4.5]decan-8-yl]pyrimidin-4-yl}-8-[3-(methanesulfonylmethyl)azetidin-1-yl]-5-(propan-2-yl)isoquinolin-3-amine], in that order: no more than 15 nM and 10.1 to 20 nM.
For `CO[C@H]1CCN(c2nccc(Nc3cc4c(C(C)C)ccc(N5CC(CS(C)(=O)=O)C5)c4cn3)n2)C[C@@H]1O` (single isomer, unassigned) [Compound 54, (3R,4R)-1-[4-({8-[3-(methanesulfonylmethyl)azetidin-1-yl]-5-(propan-2-yl)isoquinolin-3-yl}amino)pyrimidin-2-yl]-4-methoxypiperidin-3-ol or (3S,4S)-1-[4-({8-[3-(methanesulfonylmethyl)azetidin-1-yl]-5-(propan-2-yl)isoquinolin-3-yl}amino)pyrimidin-2-yl]-4-methoxypiperidin-3-ol], the IC50 on EGFR (L858R T790M C797S) is no more than 15 nM; in test [1] (setting [2]), 30.1 to 50 nM.
As to `CNCCO[C@H]1CCN(c2nccc(Nc3cc4c(C(C)C)ccc(N5C[C@H](CS(C)(=O)=O)[C@H]5C)c4cn3)n2)C[C@H]1F` [Compound 297, N-{2-[(3R,4S)-3-fluoro-4-[2-(methylamino)ethoxy]piperidin-1-yl]pyrimidin-4-yl}-8-[(2R,3S)-3-(methanesulfonylmethyl)-2-methylazetidin-1-yl]-5-(propan-2-yl)isoquinolin-3-amine], the IC50 on EGFR (L858R T790M C797S) was no more than 15 nM; in test [1] (setting [3]), no more than 10 nM.
Regarding `[2H]C([2H])([2H])O[C@@H]1CCN(c2nccc(Nc3cc4c(C(C)C)cnc(N5C[C@H](CS(C)(=O)=O)[C@H]5C)c4cn3)n2)C[C@@H]1F` (single isomer, unassigned) [Compound 284], the results for the IC50 (at EGFR (L858R T790M C797S); in test [1] (setting [3])) were no more than 15 nM and no more than 10 nM, respectively.
Taken in the same sequence, the figures for `CO[C@@H]1CCN(c2nccc(Nc3cc4c(F)ccc(N5C[C@H](CS(C)(=O)=O)[C@H]5C)c4cn3)n2)C[C@]1(C)F` (single isomer, unassigned) [Compound 84] were no more than 15 nM and 10.1 to 20 nM.
Taken in the same sequence, the figures for `[2H]C([2H])([2H])O[C@H]1CCN(c2nccc(Nc3cc4c(C(C)C)ccc(N5CC(CS(C)(=O)=O)C5)c4cn3)n2)CC1(F)F` (single isomer, unassigned) [Compound 286, N-{2-[(4S)-3,3-difluoro-4-(^2H3)methoxypiperidin-1-yl]pyrimidin-4-yl}-8-[3-(methanesulfonylmethyl)azetidin-1-yl]-5-(propan-2-yl)isoquinolin-3-amine or N-{2-[(4R)-3,3-difluoro-4-(^2H3)methoxypiperidin-1-yl]pyrimidin-4-yl}-8-[3-(methanesulfonylmethyl)azetidin-1-yl]-5-(propan-2-yl)isoquinolin-3-amine] were 15.1 to 20 nM and 10.1 to 20 nM.
For `CNCCO[C@@H]1CCN(c2nccc(Nc3cc4c(C(C)C)ccc(N5C[C@H](CS(C)(=O)=O)[C@H]5C)c4cn3)n2)CC1(F)F` (single isomer, unassigned) [Compound 301, N-{2-[(4S)-3,3-difluoro-4-[2-(methylamino)ethoxy]piperidin-1-yl]pyrimidin-4-yl}-8-[(2R,3S)-3-(methanesulfonylmethyl)-2-methylazetidin-1-yl]-5-(propan-2-yl)isoquinolin-3-amine or N-{2-[(4R)-3,3-difluoro-4-[2-(methylamino)ethoxy]piperidin-1-yl]pyrimidin-4-yl}-8-[(2R,3S)-3-(methanesulfonylmethyl)-2-methylazetidin-1-yl]-5-(propan-2-yl)isoquinolin-3-amine], the IC50 on EGFR (L858R T790M C797S) was no more than 15 nM; in test [1] (setting [2]), no more than 10 nM.
Regarding `CO[C@H]1CN(c2nccc(Nc3cc4c(C(C)C)cnc(N5C[C@H](CS(C)(=O)=O)[C@H]5C)c4cn3)n2)C[C@@H](F)[C@H]1O` (single isomer, unassigned) [Compound 308, (3R,4S,5S)-3-fluoro-1-[4-({8-[(2R,3S)-3-(methanesulfonylmethyl)-2-methylazetidin-1-yl]-5-(propan-2-yl)-2,7-naphthyridin-3-yl}amino)pyrimidin-2-yl]-5-methoxypiperidin-4-ol or (3S,4R,5R)-3-fluoro-1-[4-({8-[(2R,3S)-3-(methanesulfonylmethyl)-2-methylazetidin-1-yl]-5-(propan-2-yl)-2,7-naphthyridin-3-yl}amino)pyrimidin-2-yl]-5-methoxypiperidin-4-ol], the IC50 is no more than 15 nM on EGFR (L858R T790M C797S) and 10.1 to 20 nM in test [1] (setting [3]).
Taken in the same sequence, the figures for `CC1(C)CN(c2nccc(Nc3cc4cccc(N5CC(CS(C)(=O)=O)C5)c4cn3)n2)CC(F)(F)[C@@H]1O` (single isomer, unassigned) [Compound 34, (4R)-3,3-difluoro-1-[4-({8-[3-(methanesulfonylmethyl)azetidin-1-yl]isoquinolin-3-yl}amino)pyrimidin-2-yl]-5,5-dimethylpiperidin-4-ol or (4S)-3,3-difluoro-1-[4-({8-[3-(methanesulfonylmethyl)azetidin-1-yl]isoquinolin-3-yl}amino)pyrimidin-2-yl]-5,5-dimethylpiperidin-4-ol] were no more than 15 nM and 10.1 to 20 nM.
